Values after ≈ are worked out from the molar mass of the structure shown. Read-outs that look alike come from different tables or passages of the source. Marks after values point to notes of the source that are not given here. One block for each molecule: values may come before it.
Legend:
[1] = Distribution coefficient, shake-flask n-octanol/buffer pH 7.4; assay type: physicochemical; conditions: n-octanol/buffered aqueous solution; n-octanol/water, pH 7.4, 25 °C; read-out: log D7.4 (meas.)
Description: Distribution coefficient (D7.4) values of COTI-NH2 were determined by the shake-flask method in n-octanol/buffered aqueous solution at pH 7.4 in 20 mM phosphate buffer (0.10 M KCl) at 25.0 ± 0.2 °C following a similar approach to that reported in our previous works. The other compounds and all of their Cu(II) complexes were too lipophilic to obtain experimental data. Thus, the logP values were calculated for COTI-NMeCy, COTI-Nme2, and COTI-2 (MarvinSketch,version 16.12.12.0, calculation module developed by ChemAxon (Budapest, Hungary), http://www.chemaxon.com/products/marvin/marvinsketch/ (accessed on 20 August 2022)).

[2] = Iron(II) complex formation, UV-vis spectrophotometric titrations (anaerobic); assay type: physicochemical
Description: (§1) The UV-vis spectra were recorded using an Agilent Cary 8454 diode array spectrophotometer in the 200 to 950 nm window, and the path length was varied between 1 and 5 cm, depending on the solubility (thus the applicable concentration). For the spectrophotometric titrations, the same instruments (Metrohm 665 Dosimat burette, Orion 710A pH-meter, Metrohm combined pH glass electrode) and experimental setup (ionic strength: 0.10 M (KCl); titrant: 0.10 M carbonate-free KOH solution in 30% (v/v) DMSO/H2O; samples: prepared in 30% (v/v) DMSO/H2O; calibration: method of Irving et al.; pH range: 1.0 to 13.5; and sample volume: 10 cm^3) were used as in our previous work. Argon overpressure was used for the Fe(II)-containing samples when the Fe(II) stock solution was added to the samples in tightly closed titration vessels, which were previously completely deoxygenated (for 20 min). Measurements were taken with ligands (10–80 μM, depending on solubility) in the presence of 1, 0.5, and 0.3 equiv. of Cu(II), Fe(II), and Fe(III) ions. Equilibrium constants, such as the proton dissociation constants (pKa) of the ligands, the overall stability constants (logβ) of the metal complexes, and the UV-vis spectra of the individual ligand or complex species were computed using the program PSEQUAD [18], as was the case in our previous works.

SW480/Tria cells = system: SW480/Tria cells; parameters: method as in PMID 33190481; conditions: cited from earlier work; for IC50: 72 h, MTT; for Relative Resistance SW480/Tria: IC50 of resistant subline divided by IC50 of parental SW480
[3] = Parallel artificial membrane permeability assay (PAMPA); assay type: in vitro ADME; conditions: pH 7.4, 25 °C, read-out: Peff
Description: (§2) The thermodynamic solubility of COTI-NMeCy, COTI-Nme2, COTI-NH2, and COTI-2 was measured for the saturated solutions in water at pH 7.4 (20 mM HEPES buffer) at 25.0 ± 0.1 °C. The concentrations of the compounds were determined by UV-vis spectrophotometry using stock solutions of the compounds with known concentrations dissolved in pure DMSO, and 50% and 1% (v/v) DMSO/buffered aqueous solution for the calibration. The parallel artificial membrane permeability assay (PAMPA) was applied for the ligands with a Corning Gentest pre-coated PAMPA Plate System. Peff values were calculated according to the equation reported by Yu et al..

[4] = system: GLC-4/adr cells (ABCC1-overexpressing); parameters: method as in PMID 33190481; conditions: cited from earlier work; for IC50: 72 h, MTT; for Relative Resistance GLC-4/adr: IC50 of GLC-4/adr divided by IC50 of parental GLC-4
[5] = parameters: method as in PMID 33190481; conditions: after formation of mixed-ligand GSH adduct; cited from earlier work
[6] = Cyclic voltammetry of copper(II)–ligand (1:1) systems; assay type: physicochemical; conditions: cL = cCu(II) = 1 mM, pH 7.40, 25 °C, 90% (v/v) DMSO/H2O, 0.01 V/s scan rate
Description: (§3) Cyclic voltammograms for the Fe(III) and Cu(II) complexes were recorded in 90% (v/v) DMSO/water solution containing 1 mM ligand and 0.5 mM FeCl3 or 1 mM CuCl2 using a conventional three-electrode system under nitrogen atmosphere and a PC-Controlled Electrochemical Measurement System (EF 451). The ionic strength was 0.10 M, adjusted by TBAN. Samples were purged for 15 min with Ar before recording the cyclic voltammograms. Platinum electrodes were used as the working and auxiliary electrodes, and Ag/AgCl (3 M KCl) was applied as the reference electrode. The electrochemical potentials were converted into the normal hydrogen electrode (NHE) scale by adding 0.222 V. The instrument was calibrated with an aqueous solution of K3[Fe(CN)6] (E1/2 = +0.386 V vs. NHE). Redox potentials were obtained at different scan rates (5–25 mV/s) in the range of −0.8 to +0.1 V. The dependence of the peak current values of the square root of the scan rates is shown in Figure S5 for the iron and copper complexes of COTI-NMeCy.

[7] = Thermodynamic solubility in water at pH 7.4 (UV-vis); assay type: physicochemical; conditions: water at pH 7.4 (20 mM HEPES buffer), aqueous buffer, thermodynamic from solid, water pH 7.4 (20 mM HEPES), 25 °C, read-out: S (meas.)
Description: as §2

[8] = Iron(III) complex formation, UV-vis spectrophotometric titrations; assay type: physicochemical
Description: as §1

SW480/Coti cells = system: SW480/Coti cells; parameters: method as in PMID 33190481; conditions: cited from earlier work; for IC50: 72 h, MTT; for Relative Resistance SW480/Coti: IC50 of resistant subline divided by IC50 of parental SW480
GLC-4 cells = system: GLC-4 cells; parameters: method as in PMID 33190481; conditions: 72 h, MTT; cited from earlier work
SW480 cells = system: SW480 cells; parameters: method as in PMID 33190481; conditions: 72 h, MTT; cited from earlier work
[9] = Zinc(II) complex formation, UV-vis spectrophotometric titrations; assay type: physicochemical
[10] = Copper(II) complex formation, UV-vis titrations and EDTA competition; assay type: physicochemical
Description: as §1
The conditional stability constants (β’) of the Cu(II) complexes were calculated from competition reactions with EDTA at pH = 5.9 using MES (50 mM) when the metal:ligand ratio was 1:1 (clig = cCu between 10 and 80 μM). Individual samples were prepared in which the ligand:EDTA ratio was variable between 1:0 and 1:50. After a 3 h incubation period, UV-vis spectra were collected. The calculation of the β’ (CuL) values was performed following the same method as that in our previous work using the logβ’5.90 = 13.89 of complex [Cu(EDTA)]^2− obtained from the previously reported equilibrium constants of EDTA and its Cu(II) complex.

[11] = pKa by UV-vis spectrophotometric titrations; assay type: physicochemical; conditions: 30% (v/v) DMSO/H2O solution, I = 0.1 M (KCl), 25 °C
Description: as §1

[12] = parameters: method as in doi:10.1002/ejic.201200360; conditions: cited from earlier work
[13] = Cyclic voltammetry of iron(III)–ligand (1:2) systems; assay type: physicochemical; conditions: cL = 1 mM, pH 7.40, 25 °C, 90% (v/v) DMSO/H2O, 0.01 V/s scan rate
Description: as §3

[14] = parameters: method as in PMID 21523301; conditions: cited from earlier work
[15] = parameters: method as in doi:10.1002/ejic.200901174; conditions: cited from earlier work
[16] = T = 25.0 °C, I = 0.10 M (KCl), 30% (v/v) DMSO/H2O
[17] = calculated at cM = 1 μM, cL = 10 μM, pH = 7.40

logD [1]: 1.64 | logβ [Fe(II)L2] [2, 16]: 31.21 ± 0.09 | logβ [Fe(II)L]^+ [2, 16]: 17.36 ± 0.06 | pFe(II) ([2]; –log[free Fe(II)] calculated at cFe = 1 μM, cL = 10 μM, pH = 7.40): 17.4 | Papp [3]: 6.7 ± 0.7 ×10⁻⁶ cm/s | E′ vs. NHE, copper(II)–ligand (1:1) systems [6]: -0.17 V | solubility thermodynamic [7]: 737 µM (≈ 162 µg/mL) | pFe(III)* ([8]; Fe(III) hydroxido species also considered as unbound metal, cFe = 1 μM, cL = 10 μM, pH = 7.40): 10.4 | logβ [Fe(III)L2]^+ [8, 16]: 32.29 ± 0.08 | logβ [Fe(III)L]^2+ [8, 16]: 20.00 ± 0.09 | pFe(III) ([8]; –log[free Fe(III)] calculated at cFe = 1 μM, cL = 10 μM, pH = 7.40): 18.5 | logβ [ZnL2] [9, 16]: 25.42 ± 0.04 | logβ [ZnL]^+ [9, 16]: 14.07 ± 0.04 | pZn [9, 17]: 11.6 | pCu [10, 17]: 13.1 | logβ5.9′ [CuL]^+ ([10]; conditional stability constant, EDTA competition at pH = 5.90): 10.59 ± 0.08 | logβ [CuL]^+ ([10]; β = β’ × αH, [H+] = 10^–5.90 M): 16.92 | pKa ([11]; read-out: pKa (H2L)): 4.39 ± 0.01 | pKa ([11]; read-out: pKa (HL)): 12.22 ± 0.01
Compound: NC(=S)N/N=C1\CCCc2cccnc21 [COTI-NH2]
IC50 (SW480/Tria cells): > 20 µM | Relative Resistance SW480/Tria (SW480/Tria cells): >2.5 | IC50 [4]: 3.65 ± 0.41 µM | Relative Resistance GLC-4/adr [4]: 1.0 ^n.s. | redox reaction of the copper(II) complex with GSH [5]: relatively slow redox reaction took place | IC50 (SW480/Coti cells): 4.39 ± 0.56 µM | Relative Resistance SW480/Coti (SW480/Coti cells): 0.6 *** | IC50 (GLC-4 cells): 3.64 ± 0.39 µM | IC50 (SW480 cells): 7.85 ± 0.92 µM

Compound: NC(=S)NN=Cc1ncccc1N [Triapine, 3-aminopyridine-2-carboxaldehyde thiosemicarbazone]
logD7.4 [12]: +0.85 | E’ vs. NHE, iron(III)–ligand (1:2) systems [13]: +0.03 V | IC50 (SW480/Tria cells): > 50 µM | Relative Resistance SW480/Tria (SW480/Tria cells): >61 | IC50 [4]: 0.57 ± 0.05 µM | Relative Resistance GLC-4/adr [4]: 0.9 ^n.s. | E′ vs. NHE, copper(II)–ligand (1:1) systems [6]: -0.13 V | IC50 (SW480/Coti cells): 0.81 ± 0.08 µM | Relative Resistance SW480/Coti (SW480/Coti cells): 1.0 ^n.s. | IC50 (GLC-4 cells): 0.65 ± 0.09 µM | IC50 (SW480 cells): 0.82 ± 0.18 µM | E′ of the iron complex [14]: +0.07 V | logβ [CuL]^+ [15]: 13.9

Source: publication PMC9497102, “Thiosemicarbazone Derivatives Developed to Overcome COTI-2 Resistance” (Cancers, 2022)
